Measured values taken from patent publication US11161839B2, “2-quinolone derived inhibitors of BCL6” (Cancer Research Technology Limited, priority 2017, dated 2021).
Read-outs that look alike come from different tables or passages of the source.

Legend:
[1] = molecular target: human BCL6 BTB domain (Trx-6xHis-BCL6) (Homo sapiens (Human), UniProt P41182); assay: HTRF in vitro assay (BCL6 BTB domain / BCOR-AF633 peptide); type: binding; details: for IC50: read-out: HTRF pIC50 (converted)
Description: The % inhibition at each concentration was calculated by normalising FRET ratio to the appropriate high (DMSO with all reagents) and low (DMSO without BCL6) controls.

[2] = molecular target: BCL6-NCOR2(SMRT) corepressor protein-protein interaction (Homo sapiens (Human), UniProt P41182); assay: NanoBRET cell assay in transfected HEK293T cells; type: cell-based
Excerpt: A cellular nano-Bioluminescence Resonance Energy Transfer (nanoBRET) assay (Promega NanoBRET Nano-Glo Detection System, catalogue number N1662) was used to detect inhibition of the BCL6-NCOR2(SMRT) corepressor protein-protein interaction. DNA encoding full length BCL6 and NCOR2 were inserted into pFC32K.NanoLuc and pFC14K.HaloTag vectors (Promega) to produce C-terminal tagged fusion proteins BCL6-nanoLuc and NCOR2-HaloTag, respectively. […] Frozen transfected HEK293T cells were thawed, centrifuged and freezing medium was replaced by phenol red-free OptiMEM+4% FBS (Life Technology). […] Cells were incubated for 6 hr at 37° C./5% CO2 then NanoBRET furimazine substrate (Promega) was added to give a final concentration of 10 μM. After a short centrifugation the plates were read on an Envision (Perkin Elmer) plate reader equipped with a LUM/D600 Dual mirror, Lum 450/40 nm bandpass and D605 nm longpass filters, with a 0.2 sec reading to determine the BRET ratio. The % inhibition at each test concentration was calculated by normalising the BRET ratio to the appropriate high and low controls.

[3] = further generated data (Table 1b), 1 nM Trx-6xHis-BCL6, 0.5 nM anti-6xHis-Terbium cryptate
[4] = further generated data (Table 2b), HEK293T cells, 6 hr, read-out: NanoBRET cell pIC50 (converted)
[5] = initially generated data (Table 1a), 10 nM Trx-6xHis-BCL6, 1 nM anti-6xHis-Terbium cryptate

| Compound | HTRF pIC50 [1, 3] | IC50 [2, 4] [nM] | also measured |
| --- | --- | --- | --- |
| Cc1cc(C)n(-c2ncc(Cl)c(Nc3ccc4c(c3)c(NC(C)c3ncn(C)n3)cc(=O)n4C)n2)n1 (stereo not shown) [Example 14b, 6-((5-chloro-2-(3,5-dimethyl-1H-pyrazol-1-yl)pyrimidin-4-yl)amino)-1-methyl-4-((1-(1-methyl-1H-1,2,4-triazol-3-yl)ethyl)amino)quinolin-2(1H)-one] | 6.64 | 8320 |  |
| C[C@@H](Nc1nc(=O)n(C)c2ccc(Nc3ccnc(Cl)c3C#N)cc12)C1CC1 [Example 10m, (R)-2-chloro-4-((4-((1-cyclopropylethyl)amino)-1-methyl-2-oxo-1,2-dihydroquinazolin-6-yl)amino)nicotinonitrile] | 6.66 | 2750 |  |
| Cc1cnc(C(C)Nc2cc(=O)n(C)c3ccc(Nc4ccnc(Cl)c4C#N)cc23)nc1 (stereo not shown) [Example 10f] | 7.12 |  | IC50 [2]: 1070 nM |
| CNC(=O)c1cc(Nc2ccc3c(c2)c(NC(C)c2ncccn2)cc(=O)n3C)c(C#N)c(Cl)n1 (stereo not shown) [Example 1v, 6-chloro-5-cyano-N-methyl-4-[[1-methyl-2-oxo-4-(1-pyrimidin-2-ylethylamino)-6-quinolyl]amino]pyridine-2-carboxamide] | 7.31 | 933 | HTRF pIC50 [1, 5]: 6.76 |
| Cn1c(=O)cc(NC(C)(C)c2ncccn2)c2cc(Nc3cc(Cl)nc(Cl)c3Cl)ccc21 [Example 13, 1-methyl-4-((2-(pyrimidin-2-yl)propan-2-yl)amino)-6-((2,3,6-trichloropyridin-4-yl)amino)quinolin-2(1H)-one] | 6.66 | 1700 |  |
| COCC(C)(C)Nc1cc(=O)n(C)c2ccc(Nc3ccnc(Cl)c3C#N)cc12 [Example 19d, 2-chloro-4-((4-((1-methoxy-2-methylpropan-2-yl)amino)-1-methyl-2-oxo-1,2-dihydroquinolin-6-yl)amino)nicotinonitrile] | 6.51 | 8710 |  |
| COC1CCC1Nc1cc(=O)n(C)c2ccc(Nc3ccnc(Cl)c3C#N)cc12 (racemic) [Example 22a, rac-2-chloro-4-((4-(((1R,2S)-2-methoxycyclobutyl)amino)-1-methyl-2-oxo-1,2-dihydroquinolin-6-yl)amino)nicotinonitrile or rac-2-chloro-4-((4-(((1R,2R)-2-methoxycyclobutyl)amino)-1-methyl-2-oxo-1,2-dihydroquinolin-6-yl)amino)nicotinonitrile] |  | 2340 | IC50 [1, 3]: 251 nM |
| CC(Nc1cc(=O)n(C)c2ccc(Nc3ccnc(Cl)c3C#N)cc12)c1ncc(N2C[C@H](C)C[C@H](C)C2)cn1 (stereo partly drawn) [Example 10k, 2-chloro-4-((4-((1-(5-((3R,5S)-3,5-dimethylpiperidin-1-yl)pyrimidin-2-yl)ethyl)amino)-1-methyl-2-oxo-1,2-dihydroquinolin-6-yl)amino)nicotinonitrile] | 6.82 | 1510 |  |
| CNC(=O)c1cc(Nc2ccc3c(c2)c(NC(C)c2ncccn2)cc(=O)n3C)c(C#N)c(C)n1 (stereo not shown) [Example 18b, 5-cyano-N, 6-dimethyl-4-((1-methyl-2-oxo-4-((1-(pyrimidin-2-yl)ethyl)amino)-1,2-dihydroquinolin-6-yl)amino)picolinamide] | 6.40 | 7080 |  |
| Cc1cc(Nc2ccc3c(c2)c(NC(C)c2ncccn2)cc(=O)n3C)c(C#N)c(Cl)n1 (stereo not shown) [Example 1w, 2-chloro-6-methyl-4-[[1-methyl-2-oxo-4-(1-pyrimidin-2-ylethylamino)-6-quinolyl]amino]pyridine-3-carbonitrile] | 6.90 | 1580 | HTRF pIC50 [1, 5]: 6.29 |
| C[C@@H](CO)Nc1cc(=O)n(C)c2ccc(Nc3ccnc(Cl)c3C#N)cc12 [Example 3g, (S)-2-Chloro-4-((4-((1-hydroxypropan-2-yl)amino)-1-methyl-2-oxo-1,2-dihydroquinolin-6-yl)amino)nicotinonitrile] | 6.39 | 20900 | HTRF pIC50 [1, 5]: 6.43 |
| CNC(=O)c1cc(Nc2ccc3c(c2)c(NC(C)c2ncccn2)cc(=O)n3C)c(C#N)cn1 (stereo not shown) [Example 19c] |  | 29500 | IC50 [1, 3]: 891 nM |
| CC(Nc1cc(=O)n(C)c2ccc(Nc3ccnc(Cl)c3C#N)cc12)c1ncc(N2CCOCC2)cn1 (stereo not shown) [Example 10x, 2-chloro-4-((1-methyl-4-((1-(5-morpholinopyrimidin-2-yl)ethyl)amino)-2-oxo-1,2-dihydroquinolin-6-yl)amino)nicotinonitrile] | 7.56 | 1260 |  |
| CCOC(=O)c1cc(Nc2ccc3c(c2)c(NC(C)c2ncccn2)cc(=O)n3C)n2nccc2n1 (stereo not shown) [Example 10q, ethyl 7-((1-methyl-2-oxo-4-((1-(pyrimidin-2-yl)ethyl)amino)-1,2-dihydroquinolin-6-yl)amino)pyrazolo[1,5-a]pyrimidine-5-carboxylate] | 6.44 | 2690 |  |
| CC(Nc1cc(=O)n(C)c2ccc(Nc3nc(N4C[C@@H](C)O[C@@H](C)C4)ncc3Cl)cc12)c1ncccn1 (stereo partly drawn) [Example 17a, 6-((5-chloro-2-((2S,6R)-2,6-dimethylmorpholino)pyrimidin-4-yl)amino)-1-methyl-4-((1-(pyrimidin-2-yl)ethyl)amino)quinolin-2(1H)-one] | 6.48 | 1780 |  |
| COC[C@@H]1CCCN1C(=O)c1cc(Nc2ccc3c(c2)c(NC(C)(C)c2ncccn2)cc(=O)n3C)c(C#N)c(Cl)n1 [Example 8e] |  | 676 | IC50 [1, 3]: 28.2 nM |
| CNC(=O)c1cc(Nc2ccc3c(c2)c(NC(C)(C)COC)cc(=O)n3C)c(C#N)c(Cl)n1 [Example 7d, 6-chloro-5-cyano-4-[[4-[(2-methoxy-1,1-dimethyl-ethyl)amino]-1-methyl-2-oxo-6-quinolyl]amino]-N-methyl-pyridine-2-carboxamide] | 6.85 | 977 |  |
| C[C@@H](Nc1cc(=O)n(C)c2ccc(Nc3cc(C(=O)N4CCC4)ncc3Cl)cc12)C1CC1 [Example 15d, (R)-6-((2-(azetidine-1-carbonyl)-5-chloropyridin-4-yl)amino)-4-((1-cyclopropylethyl)amino)-1-methylquinolin-2(1H)-one] | 6.42 | 1780 |  |
| CC(Nc1cc(=O)n(C)c2ccc(Nc3nc(N4CCC(F)(F)C(CO)C4)ncc3Cl)cc12)c1ncccn1 (single isomer, unassigned) [Example 26d] |  | 3800 | IC50 [1, 3]: 501 nM |
| COC[C@@H]1CCCN1C(=O)c1cc(Nc2ccc3c(c2)c(N[C@H](C)C2CC2)cc(=O)n3C)c(Cl)cn1 [Example 15a, 6-((5-Chloro-2-((S)-2-(methoxymethyl)pyrrolidine-1-carbonyl)pyridin-4-yl)amino)-4-(((R)-1-cyclopropylethyl)amino)-1-methylquinolin-2(1H)-one] | 6.59 | 2000 |  |
| Cn1c(=O)cc(NC2(c3ncccn3)CC2)c2cc(Nc3ccnc(Cl)c3C#N)ccc21 [Example 10u, 2-chloro-4-((1-methyl-2-oxo-4-((1-(pyrimidin-2-yl)cyclopropyl)amino)-1,2-dihydroquinolin-6-yl)amino)nicotinonitrile] | 6.19 | 8710 |  |
| Cn1c(=O)cc(NC(C)(C)c2ncc(C3CC3)cn2)c2cc(Nc3ccnc(Cl)c3C#N)ccc21 [Example 10a, 2-chloro-4-((4-((2-(5-cyclopropylpyrimidin-2-yl)propan-2-yl)amino)-1-methyl-2-oxo-1,2-dihydroquinolin-6-yl)amino)nicotinonitrile] | 7.53 | 513 |  |
| COCCC1CCCN1C(=O)c1cc(Nc2ccc3c(c2)c(N[C@H](C)C2CC2)cc(=O)n3C)c(Cl)cn1 (stereo partly shown) [Example 15b] | 6.46 | 2190 |  |
| CC(Nc1cc(=O)n(CC2CCOCC2)c2ccc(Nc3ccnc(Cl)c3C#N)cc12)c1ncccn1 (stereo not shown) [Example 1d, 2-chloro-4-[[2-oxo-4-(1-pyrimidin-2-ylethylamino)-1-(tetrahydropyran-4-ylmethyl)-6-quinolyl]amino]pyridine-3-carbonitrile] | 6.58 |  | HTRF pIC50 [1, 5]: 6.58; NanoBRET cell pIC50 ([2]; further generated data (Table 2b), HEK293T cells, 6 hr): 5.45; IC50 ([2]; initially generated data (Table 2a), HEK293T cells, 6 hr, read-out: NanoBRET cell pIC50 (converted)): 3550 nM |
| CC(=O)N(C)c1cc(Nc2ccc3c(c2)c(NC(C)c2ncccn2)cc(=O)n3C)c(Cl)cn1 (stereo not shown) [Example 21, N-(5-Chloro-4-((1-methyl-2-oxo-4-((1-(pyrimidin-2-yl)ethyl)amino)-1,2-dihydroquinolin-6-yl)amino)pyridin-2-yl)-N-methylacetamide] | 6.33 | 6760 |  |
| CC(Nc1nc(=O)n(C)c2ccc(Nc3nc(N4C[C@@H](C)O[C@@H](C)C4)ncc3Cl)cc12)c1ncccn1 (stereo partly drawn) [Example 26e, 6-[[5-chloro-2-[(2R,6S)-2,6-dimethylmorpholin-4-yl]pyrimidin-4-yl]amino)-1-methyl-4-(1-pyrimidin-2-ylethylamino)quinazolin-2-one] | 7.03 | 2880 |  |
| CC(Nc1cc(=O)n(C)c2ccc(Nc3ccnc(Cl)c3C#N)cc12)c1ncc(-c2cccnc2)cn1 (stereo not shown) [Example 20, 2-chloro-4-((1-methyl-2-oxo-4-((1-(5-(pyridin-3-yl)pyrimidin-2-yl)ethyl)amino)-1,2-dihydroquinolin-6-yl)amino)nicotinonitrile] | 7.46 | 479 |  |
| CC(C)(Nc1cc(=O)n(CC2CCCCC2)c2ccc(Nc3ccnc(Cl)c3C#N)cc12)c1ncccn1 [Example 10o, 2-chloro-4-((1-(cyclohexylmethyl)-2-oxo-4-((2-(pyrimidin-2-yl)propan-2-yl)amino)-1,2-dihydroquinolin-6-yl)amino)nicotinonitrile] | 6.50 | 2290 |  |
